In brackets after ≈: the same amount, converted by molar mass.
Columns and labels:
Type in all cases: physicochemical
[1] = Aqueous solubility of perampanel without solubilizer; conditions: water without solubilizer, aqueous buffer
Protocol: Perampanel has particularly poor water solubility. Perampanel has an aqueous solubility of about 0.001 mg/mL at pH 7 at ambient room temperature. Many attempts to solubilize perampanel in water have failed.
Perampanel is a basic drug that has poor water solubility. One source of perampanel is FYCOMPA, obtained from Eisai Co. Ltd., of Tokyo. […] Solubility studies investigated numerous different solubilizers ranging from organic cosolvents, surfactants, amino acids, complexing agents, and cyclodextrins. Further solubility studies were conducted as a function of pH with four selected solubilizers in the pH range 2 to 6. Solubility with all four solubilizers decreased as the pH was increased from 2 to 6. (See FIG. 2)

[2] = pH-solubility of perampanel in SBE-β-CD solutions; conditions: aqueous with cosolvent or surfactant or cyclodextrin
Protocol: Studies were conducted to determine the effect of Sulfobutyl Ether Beta Cyclodextrin (SBE-β-CD) concentration and pH on perampanel solubility. In one embodiment, the drug is solubilized at acidic pH in high concentration SBE-β-CD solutions, and then administered at neutral pH in low concentration SBE-β-CD solutions after dilution. The pH range studied for the formulation was 1.5 to 8.0 with a SBE-β-CD concentration range of 20% to 50%. For the diluted administration solution, the pH range studied was 6 to 8 with a SBE-β-CD concentration range of 3% to 9.5%.
In one embodiment, the drug product is administered after dilution with an IV fluid. The solubility of perampanel in SBE-β-CD was determined under diluted conditions in the neutral pH range. Perampanel concentrations after dilution can be as low as 0.08 mg/mL (8 mg in 100 mL) and as high as 0.24 mg/mL (12 mg in 50 mL).

[3] = Metastable zone width study (precipitation temperature on cooling); conditions: 40% SBE-β-CD, pH 7
Protocol: Meta-Stable Zone Width studies on SBE-β-CD based perampanel formulations containing varying concentrations of perampanel were performed to estimate the meta-stable zone for formulations containing 40% SBE-β-CD at pH 7. Lyophilization provides for long-term storage but requires reconstitution prior to use. When the lyophilized formulation is reconstituted, the solution is in a meta-stable supersaturated state. Meta-stable zone width analysis provides an estimate of how close a formulation is to the meta-stable state boundary.
Perampanel solutions of varying concentration were prepared in 40% SBE-β-CD at pH 7 and placed in a warm temperature controlled mixing vessel with a LASENTECH® probe to detect precipitation. Although those skilled in the art will recognize that formulations as stated in the prior examples may be prepared by a number of methods, the following method is used to prepare formulations at various perampanel concentrations in 40% SBE-β-CD, pH 7, liquid form, for the trials below. First, a SBE-β-CD solution at pH 1.8 is prepared by adding about 25 ml of water to a beaker, then adding about 20 g of SBE-β-CD. The SBE-β-CD has a water content of 4.7%, is 100% pure, and has a theoretical weight of 20 g/0.953, or 21.0 g. The SBE-β-CD is slowly added with mixing until it has dissolved. The volume is checked to ensure that it is not greater than 40 ml. pH of the solution is adjusted to pH 1.75 with 85% phosphoric acid.
The weight of perampanel used to prepared the desired concentration is then calculated by dividing 100 mg by the product of (1-[moisture content of perampanel/100]) and (anhydrous purity of perampanel/100). In some examples the moisture content is 3.7% and the anhydrous purity is 99.9%. The calculated amount of perampanel is added to the pH 1.75 solution, then mixed overnight at 40° C. The solution is filtered through a 20 μm filter at 40° C., then warmed to 40° C. At that temperature pH is adjusted to 7. Volume is adjusted to 50 mL with water and mixed.
The solutions were cooled at defined rates and the temperature at which precipitation occurred was recorded. The potency for each sample was measured by HPLC analysis. The precipitation temperature data were analyzed as per the method described by Sangwal, K. in Crystal Growth and Design, 9, 2 (2009) 942-950.
A plot of the precipitation temperature of perampanel from a 40% SBE-β-CD, pH 7 solution as a function of drug concentration (mg/mL) and cooling rate (deg C./hr) is provided in FIG. 8. A contour plot (see FIG. 9) and a 3-D plot (see FIG. 10) illustrating the relationship between cooling rate (deg/hr), perampanel concentration (mg/mL) and precipitation temperature were generated using the DESIGN-EXPERT® software, version 7.1.6. The DESIGN-EXPERT® model used the precipitation temperature, cooling rate, concentration and concentration terms to fit a surface to the data. The DESIGN-EXPERT® program was then able to extrapolate the precipitation temperature at zero cooling rate for different drug concentrations with 95% confidence intervals from the fit of the data.
This extrapolated data was used to prepare FIG. 11, which predicts the meta-stable zone boundary for perampanel in a 40% SBE-β-CD formulation at pH 7. Theoretically, if the drug concentration remains at or below the meta-stable zone boundary, then the drug should not precipitate from solution at the defined temperatures.

For `N#Cc1ccccc1-c1cc(-c2ccccn2)cn(-c2ccccc2)c1=O` [perampanel, 2-(6′-oxo-1′-phenyl-1′,6′-dihydro[2,3′-bipyridin]-5′-yl)benzonitrile], the solubility ([1]; 22° C., pH 2) was 30 µg/mL (≈ 85.9 µM), the solubility ([1]; 22° C., pH 7) was ~1 µg/mL (≈ 2.86 µM) and the solubility ([1]; pH 7, ambient room temperature) was ~1 µg/mL (≈ 2.86 µM). It also gave a solubility ([2]; 3% SBE-β-CD solution, 3% SBE-β-CD, pH 5.5) of 20 µg/mL (≈ 57.2 µM), a solubility ([2]; 3% SBE-β-CD solution, 3% SBE-β-CD, pH 7) of 30 µg/mL (≈ 85.9 µM) and a solubility ([2]; 3% SBE-β-CD solution, 3% SBE-β-CD, pH 8) of 30 µg/mL (≈ 85.9 µM). The solubility ([2]; 6% SBE-β-CD solution, 6% SBE-β-CD, pH 5.5) was 40 µg/mL (≈ 114 µM), the solubility ([2]; 6% SBE-β-CD solution, 6% SBE-β-CD, pH 7) was 30 µg/mL (≈ 85.9 µM) and the solubility ([2]; 6% SBE-β-CD solution, 6% SBE-β-CD, pH 8) was 60 µg/mL (≈ 172 µM). The solubility ([2]; 9.5% SBE-β-CD solution, 9.5% SBE-β-CD, pH 5) was 80 µg/mL (≈ 229 µM), the solubility ([2]; 9.5% SBE-β-CD solution, 9.5% SBE-β-CD, pH 7) was 80 µg/mL (≈ 229 µM) and the “Ppt T” value ([3]; Exp MC2-102-148, cooling 3.00 deg C./hour, measured 1.99 mg/mL) was 21.6 deg C. For the same compound, the “Ppt T” value ([3]; Exp MC2-102-149, cooling 1.00 deg C./hour, measured 1.64 mg/mL) was 31.6 deg C, the “Ppt T” value ([3]; Exp MC2-102-150, cooling 3.00 deg C./hour, measured 1.69 mg/mL) was 13.7 deg C and the “Ppt T” value ([3]; Exp MC2-102-151, cooling 6.00 deg C./hour, measured 1.63 mg/mL) was 11.3 deg C. The “Ppt T” value ([3]; Exp MC2-102-153, cooling 6.00 deg C./hour, measured 1.81 mg/mL) was 12.6 deg C, the “Ppt T” value ([3]; Exp MC2-102-154, cooling 1.00 deg C./hour, measured 1.97 mg/mL) was 30.5 deg C and the “Ppt T” value ([3]; Exp MC2-102-155, cooling 2.00 deg C./hour, measured 1.68 mg/mL) was 12.2 deg C. The “Ppt T” value ([3]; Exp MC2-102-157, cooling 4.00 deg C./hour, measured 1.70 mg/mL) was 17.2 deg C, the “Ppt T” value ([3]; Exp MC2-102-159, cooling 2.00 deg C./hour, measured 1.39 mg/mL) was 6.4 deg C and the “Ppt T” value ([3]; Exp MC2-102-161, cooling 0.50 deg C./hour, measured 1.79 mg/mL) was 32.6 deg C. For the same compound, the “Ppt T” value ([3]; Exp MC2-102-162, cooling 1.50 deg C./hour, measured 1.74 mg/mL) was 21.7 deg C, the “Ppt T” value ([3]; Exp MC2-102-163, cooling 0.75 deg C./hour, measured 1.51 mg/mL) was 20.3 deg C and the “Ppt T” value ([3]; Exp MC2-102-164, cooling 0.15 deg C./hour, measured 1.74 mg/mL) was 36.6 deg C. For the same compound, the “Ppt T” value ([3]; Exp MC2-102-165, cooling 0.30 deg C./hour, measured 1.80 mg/mL) was 34.8 deg C, the “Ppt T” value ([3]; Exp MC2-102-166, cooling 0.75 deg C./hour, measured 1.78 mg/mL) was 32.1 deg C and the “Ppt T” value ([3]; Exp MC2-102-168, cooling 1.00 deg C./hour, measured 1.52 mg/mL) was 9.5 deg C. For the same compound, the “Ppt T” value ([3]; Exp MC2-102-169, cooling 0.50 deg C./hour, measured 1.43 mg/mL) was 29.5 deg C, the “Ppt T” value ([3]; Exp MC2-102-170, cooling 0.30 deg C./hour, measured 1.43 mg/mL) was 29.6 deg C and the “Ppt T” value ([3]; Exp MC2-102-172, cooling 0.15 deg C./hour, measured 1.53 mg/mL) was 33.3 deg C. For the same compound, the “Ppt T” value ([3]; Exp MC2-102-174, cooling 0.40 deg C./hour, measured 1.51 mg/mL) was 30.9 deg C, the “Ppt T” value ([3]; Exp MC2-102-178, cooling 0.22 deg C./hour, measured 1.42 mg/mL) was 33.7 deg C and the “Ppt T” value ([3]; Exp MC2-102-181, cooling 0.10 deg C./hour, measured 1.46 mg/mL) was 33.5 deg C. The “Ppt T” value ([3]; Exp MC2-102-182, cooling 0.22 deg C./hour, measured 1.77 mg/mL) was 35.5 deg C, the “Ppt T” value ([3]; Exp MC2-102-185, cooling 0.40 deg C./hour, measured 1.30 mg/mL) was 17.4 deg C and the “Ppt T” value ([3]; Exp MC2-102-187, cooling 0.30 deg C./hour, measured 1.10 mg/mL) was 10.2 deg C. For the same compound, the “Ppt T” value ([3]; Exp MC2-102-192, cooling 0.20 deg C./hour, measured 1.21 mg/mL) was 22.9 deg C, the “Ppt T” value ([3]; Exp MC2-102-193, cooling 0.10 deg C./hour, measured 1.26 mg/mL) was 24.1 deg C and the “Ppt T” value ([3]; Exp MC2-102-197, cooling 0.40 deg C./hour, measured 1.06 mg/mL) was 2.6 deg C. The “Ppt T” value ([3]; Exp MC2-1108-001, cooling 0.40 deg C./hour, measured 0.97 mg/mL) was 12.8 deg C.
